For 25 compounds, Ki results are on record in US20110082130A1 (LIGAND PHARMACEUTICALS, INC., priority 2006, published 2011).

T1 sequence (Q9Y5N1 with tags, fused parts or gaps): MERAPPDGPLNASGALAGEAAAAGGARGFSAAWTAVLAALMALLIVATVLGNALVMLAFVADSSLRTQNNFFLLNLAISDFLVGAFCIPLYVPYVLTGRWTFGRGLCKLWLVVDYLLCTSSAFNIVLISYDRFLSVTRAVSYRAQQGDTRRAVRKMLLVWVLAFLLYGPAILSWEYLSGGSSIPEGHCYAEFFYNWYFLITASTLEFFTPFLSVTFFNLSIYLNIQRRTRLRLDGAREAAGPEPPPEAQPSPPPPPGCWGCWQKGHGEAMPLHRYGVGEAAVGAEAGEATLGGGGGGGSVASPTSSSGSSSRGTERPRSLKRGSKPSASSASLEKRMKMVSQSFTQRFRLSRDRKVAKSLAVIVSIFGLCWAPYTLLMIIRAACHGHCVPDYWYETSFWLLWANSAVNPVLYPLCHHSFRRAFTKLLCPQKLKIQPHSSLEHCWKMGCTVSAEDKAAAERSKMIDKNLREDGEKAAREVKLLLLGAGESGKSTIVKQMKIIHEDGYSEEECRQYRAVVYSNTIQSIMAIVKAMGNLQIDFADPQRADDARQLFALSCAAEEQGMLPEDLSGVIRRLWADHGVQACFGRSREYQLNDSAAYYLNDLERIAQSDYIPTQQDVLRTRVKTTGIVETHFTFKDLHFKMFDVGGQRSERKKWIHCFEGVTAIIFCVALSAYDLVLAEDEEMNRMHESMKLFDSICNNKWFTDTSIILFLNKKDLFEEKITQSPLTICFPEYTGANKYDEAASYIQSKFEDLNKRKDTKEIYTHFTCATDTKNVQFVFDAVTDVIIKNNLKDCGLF

The first assay concerns the target T1, chimeric human H3 receptor (Homo sapiens, UniProt Q9Y5N1).
T1 construct: made in house; host or cells: Sf9 insect cells (baculovirus); P2 membrane preparation
The assay can be described thus: Chimeric human H3 receptor GTP binding assay (agonist-stimulated GTP-gamma35S binding, Example 7). As to conditions: Table I; P2 membranes of Sf9 cells, 1 μM histamine as agonist, Ki from IC50 by Cheng-Prusoff. The assay is classed as biochemical. The source says:
This Example illustrates a representative assay for evaluating agonist-stimulated GTP-gamma^35S binding (“GTP binding”) activity. […] This agonist-stimulated GTP binding activity can also be used to detect partial agonism mediated by antagonist compounds. A compound analyzed in this assay is referred to herein as a “test compound.”
Four independent baculoviral stocks (one directing the expression of the chimeric human H3 receptor and three directing the expression of each of the three subunits of a heterotrimeric G-protein) are used to infect a culture of Sf9 cells as described above. P2 membranes are prepared as described above, and agonist-stimulated GTP binding on the P2 membranes is assessed using histamine (Sigma Chemical Co., St. Louis, Mo.) as agonist in order to ascertain that the receptor/G-protein-alpha-beta-gamma combination(s) yield a functional response as measured by GTP binding. P2 membranes are resuspended by Dounce homogenization (tight pestle) in GTP binding assay buffer (50 mM Tris pH 7.4, 120 mM NaCl, 5 mM MgCl2, 2 mM EGTA, 1 mg/ml BSA, 0.2 mg/ml bacitracin, 0.02 mg/ml aprotinin, 0.01 mg/ml saponin, 10 μM GDP) and added to assay tubes at a concentration of 35 μg protein/reaction tube. After adding increasing doses of histamine at concentrations ranging from 10^−12 M to 10^−5 M, reactions are initiated by the addition of […] GTP-gamma^35S (PERKIN ELMER; Boston, Mass.) with a final assay volume of 0.20 ml. In competition experiments, non-radiolabeled test compounds are added to separate reactions at concentrations ranging from 10^−10 M to 10^−6 M along with 1 μM histamine to yield a final volume of 0.20 ml.
Neutral antagonists are antagonists that are substantially free of inherent agonist activity, and include those test compounds that reduce the histamine-stimulated GTP binding activity towards, but not below, baseline levels. In contrast, in the absence of added histamine, inverse agonists reduce the GTP binding activity of the receptor-containing membranes below baseline.
After a 60-min incubation at room temperature, reactions are terminated by vacuum filtration over WHATMAN GF/C filters (pre-soaked in wash buffer, 0.1% BSA) followed by washing with ice-cold wash buffer (50 mM Tris pH 7.4, 120 mM NaCl). The amount of receptor-bound (and thereby membrane-bound) GTP-gamma^35S is determined by measuring the filter-bound radioactivity, preferably by liquid scintillation spectrometry of the washed filters. Non-specific binding is determined in parallel assays including 10 μM unlabeled GTP-gammaS and typically represents less than 5 percent of total binding. Data is expressed as percent above basal (baseline). The results of GTP binding experiments are analyzed using SIGMAPLOT software (SPSS Inc., Chicago, Ill.). IC50 values are calculated by non-linear regression analysis of dose-response curves using Kaleidograph (Synergy Software, Reading, Pa.).
Alternatively the data is analyzed as follows. First, the average bound radioactivity from negative control wells (no agonist) is subtracted from the bound radioactivity detected for each of the other experimental wells. Second, average bound radioactivity is calculated for the positive control wells (agonist wells). Then, percent inhibition for each compound tested is calculated using the equation:
Calculated IC50 values are converted to K1 values by the Cheng-Prusoff correction (Cheng and Prusoff (1973) Biochem. Pharmacol. 22(23):3099-3108). Accordingly, the following equation: Ki=IC50/(1+[L]/EC50) is used, where [L] is the histamine concentration in the GTP binding assay, and EC50 is the concentration of histamine producing a 50% response, as determined by a dose-response analysis using concentrations of histamine ranging from 10^−10 M to 10^−6M. […]
Background: GTPγS is a poorly hydrolysed GTP analogue; its binding reports G protein activation.
On to `O=C(CN1CCn2ccnc2C1)N1CCN(C2CCC2)CC1` [Compound 83, 7-[2-(4-cyclobutylpiperazin-1-yl)-2-oxoethyl]-5,6,7,8-tetrahydroimidazo[1,2-a]pyrazine], for which the inhibitory constant (Ki) (as a rule, the dissociation constant of the complex between target and ligand, obtained from inhibition or displacement) was < 1 µM.

Staying with this assay, now noted: Table II "Ki", symbol *; assay of Example 7.
For the compound `C[C@@H]1CN(C(=O)CN2CCc3cc(-c4cncnc4)ccc3C2)CCN1C1CCCC1` [Compound 611, 2-{2-[(3R)-4-cyclopentyl-3-methylpiperazin-1-yl]-2-oxoethyl}-6-pyrimidin-5-yl-1,2,3,4-tetrahydroisoquinoline], the Ki is < 1 µM.
As to `C[C@@H]1CN(C(=O)CN2CCc3cc(-c4cncnc4)ccc3C2)CCN1C1CCCCC1` [Compound 617, 2-{2-[(3R)-4-cyclohexyl-3-methylpiperazin-1-yl]-2-oxoethyl}-6-pyrimidin-5-yl-1,2,3,4-tetrahydroisoquinoline], the Ki was < 1 µM.
Still for that read-out and setting: then `O=C(CN1CCc2cc(-c3ccc(C(F)(F)F)cn3)ccc2C1)N1CCN(C2CCC2)CC1` [Compound 632, 2-[2-(4-cyclobutylpiperazin-1-yl)-2-oxoethyl]-6-[5-(trifluoromethyl)pyridin-2-yl]-1,2,3,4-tetrahydroisoquinoline], with < 1 µM; and `O=C(CN1CCc2cc(-c3ccc4ccccc4n3)ccc2C1)N1CCN(C2CCC2)CC1` [Compound 634, 2-{2-[2-(4-cyclobutylpiperazin-1-yl)-2-oxoethyl]-1,2,3,4-tetrahydroisoquinolin-6-yl}quinoline], with < 1 µM.

The same assay, now with this note: Table II; "*" = Ki in assay of Example 7 less than 1 micromolar.
As for `O=C(CN1CCc2nn(-c3ncccn3)cc2C1)N1CCN(C2CCC2)CC1` [Compound 248, 5-[2-(4-cyclobutylpiperazin-1-yl)-2-oxoethyl]-2-pyrimidin-2-yl-4,5,6,7-tetrahydro-2H-pyrazolo[4,3-c]pyridine], the Ki was < 1 µM.
The same measure, in the same setting: then `Cn1cc(-c2ccc3c(c2)CCN(CC(=O)N2CCN(C4CCC4)CC2)C3)cnc1=O` [Compound 266, 5-{2-[2-(4-cyclobutylpiperazin-1-yl)-2-oxoethyl]-1,2,3,4-tetrahydroisoquinolin-6-yl}-1-methylpyrimidin-2(1H)-one], with < 1 µM.
Still for that read-out and setting: the result for `CC1CCC[C@H]2CN(C(=O)CN3CCc4nc(-c5cncnc5)sc4C3)CCN12` (stereo in doubt) [Compound 150, 6-methyl-2-[(2-pyrimidin-5-yl-6,7-dihydro[1,3]thiazolo [5,4-c]pyridin-5(4H)-yl)acetyl]octahydro-2H-pyrido[1,2-a]pyrazine] reads < 1 µM.
Same read-out and setting: then `O=C(CN1CCc2n[nH]cc2C1)N1CCN(C2CCC2)CC1` [Compound 91, 5-[2-(4-cyclobutylpiperazin-1-yl)-2-oxoethyl]-4,5,6,7-tetrahydro-2H-pyrazolo[4,3-c]pyridine], with < 1 µM.
In the case of `NC(=O)c1cnn(-c2ccc3c(c2)CCN(CC(=O)N2CCN(C4CCC4)CC2)C3)c1` [Compound 243, 1-{2-[2-(4-cyclobutylpiperazin-1-yl)-2-oxoethyl]-1,2,3,4-tetrahydroisoquinolin-6-yl}-1H-pyrazole-4-carboxamide], the Ki is < 1 µM.
Turning to `O=C(CN1CCc2nc(N3CCC(F)C3)ccc2C1)N1CCN(C2CCC2)CC1` (stereo not shown) [Compound 225, 6-[2-(4-cyclobutylpiperazin-1-yl)-2-oxoethyl]-2-(3-fluoropyrrolidin-1-yl)-5,6,7,8-tetrahydro-1,6-naphthyridine], the Ki was < 1 µM.
On the same count and under the same terms, the result for `CC(=O)c1ccc2c(c1)CCN(CC(=O)N1CCN(C(C)C)CC1)C2` [Compound 141, 1-{2-[2-(4-isopropylpiperazin-1-yl)-2-oxoethyl]-1,2,3,4-tetrahydroisoquinolin-6-yl}ethanone] reads < 1 µM.
The same measure, in the same setting: the result for `O=C(CN1CCc2cn(-c3cccnc3)nc2C1)N1CCN(C2CCC2)CC1` [Compound 123, 6-[2-(4-cyclobutylpiperazin-1-yl)-2-oxoethyl]-2-pyridin-3-yl-4,5,6,7-tetrahydro-2H-pyrazolo[3,4-c]pyridine] reads < 1 µM; that for `O=C(CN1CCc2cc(-c3cscn3)ccc2C1)N1CCN(C2CCC2)CC1` [Compound 119, 2-[2-(4-cyclobutylpiperazin-1-yl)-2-oxoethyl]-6-(1,3-thiazol-4-yl)-1,2,3,4-tetrahydroisoquinoline], < 1 µM; that for `CC1CN(C(=O)CN2CCc3nc(-c4nccs4)sc3C2)CCN1C1CCC1` (stereo not shown) [Compound 115, 5-[2-(4-cyclobutyl-3-methylpiperazin-1-yl)-2-oxoethyl]-2-(1,3-thiazol-2-yl)-4,5,6,7-tetrahydro[1,3]thiazolo [5,4-c]pyridine], < 1 µM.
Still for that read-out and setting: the result for `O=C(CN1CCc2nn(-c3ccc(N4CCCC4)nn3)cc2C1)N1CCN(C2CCC2)CC1` [Compound 258, 5-[2-(4-cyclobutylpiperazin-1-yl)-2-oxoethyl]-2-(6-pyrrolidin-1-ylpyridazin-3-yl)-4,5,6,7-tetrahydro-2H-pyrazolo[4,3-c]pyridine] reads < 1 µM.

Still in this assay, the particulars now being: Table II; assay of Example 7.
Regarding `Cc1nc(N2CCOCC2)nc2c1CN(CC(=O)N1CCN(C3CCC3)CC1)CC2` [Compound 692, 6-[2-(4-cyclobutylpiperazin-1-yl)-2-oxoethyl]-4-methyl-2-morpholin-4-yl-5,6,7,8-tetrahydropyrido[4,3-d]pyrimidine], the Ki was < 1 µM.
On the same count and under the same terms, then `O=C(CN1CCc2nn(C3CCOCC3)cc2C1)N1CCN(C2CCC2)CC1` [Compound 685], with < 1 µM.

Staying with this assay, now noted: assay of Example 7; "*" in Ki of Table II.
As for `O=C(CN1CCc2nc(-c3ccc(Cl)cc3F)sc2C1)N1CCN(C2CCC2)CC1` [Compound 351, 2-(4-chloro-2-fluorophenyl)-5-[2-(4-cyclobutylpiperazin-1-yl)-2-oxoethyl]-4,5,6,7-tetrahydro[1,3]thiazolo [5,4-c]pyridine], the Ki was < 1 µM.
Turning to `O=C(CN1CCc2nc(-c3ccccc3)sc2C1)N1CCN(C2CCC2)CC1` [Compound 294, 5-[2-(4-cyclobutylpiperazin-1-yl)-2-oxoethyl]-2-phenyl-4,5,6,7-tetrahydro[1,3]thiazolo [5,4-c]pyridine], the Ki was < 1 µM.
As for `CS(=O)(=O)c1ccc(-c2ccc3c(c2)CCN(CC(=O)N2CCN(C4CCC4)CC2)C3)cc1` [Compound 389, 2-[2-(4-cyclobutylpiperazin-1-yl)-2-oxoethyl]-6-[4-(methylsulfonyl)phenyl]-1,2,3,4-tetrahydroisoquinoline], the Ki was < 1 µM.
Still for that read-out and setting: the result for `CS(=O)(=O)c1cccc(-c2ccc3c(c2)CCN(CC(=O)N2CCN(C4CCCC4)CC2)C3)c1` [Compound 394, 2-[2-(4-cyclopentylpiperazin-1-yl)-2-oxoethyl]-6-[3-(methylsulfonyl)phenyl]-1,2,3,4-tetrahydroisoquinoline] reads < 1 µM; that for `O=C(CN1CCc2nc(-c3ccc(Cl)c(Cl)c3)sc2C1)N1CCN(C2CCC2)CC1` [Compound 354, 5-[2-(4-cyclobutylpiperazin-1-yl)-2-oxoethyl]-2-(3,4-dichlorophenyl)-4,5,6,7-tetrahydro[1,3]thiazolo [5,4-c]pyridine], < 1 µM; that for `Cc1cc(C)c(-c2nc3c(s2)CN(CC(=O)N2CCN(C4CCC4)CC2)CC3)c(C)c1` [Compound 366, 5-[2-(4-cyclobutylpiperazin-1-yl)-2-oxoethyl]-2-mesityl-4,5,6,7-tetrahydro[1,3]thiazolo [5,4-c]pyridine], < 1 µM.
The same measure, in the same setting: then `CCOc1ccccc1-c1nc2c(s1)CN(CC(=O)N1CCN(C3CCC3)CC1)CC2` [Compound 341, 5-[2-(4-cyclobutylpiperazin-1-yl)-2-oxoethyl]-2-(2-ethoxyphenyl)-4,5,6,7-tetrahydro[1,3]thiazolo [5,4-c]pyridine], with < 1 µM.
